Literature values as cited in patent US20070020177A1, “Radiometal complex compositions” (priority 2003, published 2007).

^99mTc-TRODAT-1
stable at room temperature (Fan et al): 24 h | radiochemical purity reached by kit (minimum of 10 μg tropane conjugate in the kit, autoclave heating 30 minutes, Choi et al): greater than 90%
